Each structure is given as a SMILES string.

Assay [1] has as its system ATP aptamer (DNA, aptamer) ATAGCGGAGGAAGGATACCTGGGGGAGTATAT
Kind of assay: fluorescence of dye-aptamer complex. The note with it: 300 mM NaCl, 5 mM MgCl2, 10 mM KCl; 20 mM Tris-Cl pH 7.5, 25 °C; dye 25 nM, aptamer 10 nM.

Assay [2] has the same test system. Kind of assay: fluorescence change of staining dye. The note with it: 300 mM NaCl, 5 mM MgCl2, 10 mM KCl, 20 mM Tris-Cl pH 7.5, 25 °C, Hoechst 33258 25 nM as indicator, aptamer 10 nM.
The subject of assay [3] is theophylline aptamer (RNA, aptamer) GGUGAUACCAGCAUCGUCUUGAUGCCCUUGGCAGCACC
Kind of assay: fluorescence change of staining dye. The note with it: 140 mM NaCl, 5 mM KCl, 5 mM MgCl2, 20 mM Tris-Cl pH 7.5, 25 °C, aptamer 10 nM.

Assay [4] has as its system thrombin-binding aptamer (TBA) (DNA, G4) GGTTGGTGTGGTTGG
Briefly: fluorescence of dye-aptamer complex. The conditions noted are these: 300 mM NaCl, 5 mM MgCl2, 10 mM KCl; 20 mM Tris-Cl pH 7.5, 25 °C; dye 25 nM, aptamer 10 nM.

Assay [5] has as its system theophylline aptamer (RNA, aptamer) GGUGAUACCAGCAUCGUCUUGAUGCCCUUGGCAGCACC
Briefly: fluorescence of dye-aptamer complex. The conditions noted are these: 140 mM NaCl, 5 mM KCl, 5 mM MgCl2; 20 mM Tris-Cl pH 7.5, 25 °C; dye 25 nM, aptamer 10 nM.

For the compound `CN1CCN(c2ccc3nc(-c4ccc5nc(-c6ccc(O)cc6)[nH]c5c4)[nH]c3c2)CC1`, the binding result in assay [1] is “yes”.
As for `Nc1nc2c(ncn2[C@@H]2O[C@H](COP(=O)(O)OP(=O)(O)OP(=O)(O)O)[C@@H](O)[C@H]2O)c(=O)[nH]1`, the binding entry in assay [2] (~5% change, within error) is reported as “no”.
As to `Cn1c(=O)c2c(ncn2C)n(C)c1=O`, the binding entry in assay [3] (TO 25 nM as indicator, huge excess of caffeine) was “no”.
In the case of `CN1C(=Cc2cc[n+](C)c3ccccc23)Sc2ccccc21`, the binding result in assay [4] and in assay [5] was “yes” throughout.
Take `Cn1c(=O)c2[nH]cnc2n(C)c1=O`: the binding result in assay [3] (TO or SYBR Green 25 nM as indicator) was “yes”.
Regarding `Nc1ncnc2c1ncn2[C@@H]1O[C@H](COP(=O)(O)OP(=O)(O)OP(=O)(O)O)[C@@H](O)[C@H]1O`, the binding entry in assay [2] is on record as “yes”.
For the compound `C[n+]1c(C=C2C=CN(CCC[N+](C)(C)CCC[N+](C)(C)CCCN3C=CC(=Cc4oc5ccccc5[n+]4C)c4ccccc43)c3ccccc32)oc2ccccc21`, the binding result in assay [1] and in assay [4] was “yes” each time.
Turning to `CCCN(CCCN(C)C)c1cc(C=C2Sc3ccccc3N2C)c2ccccc2[n+]1-c1ccccc1`, the binding result in assay [4] and in assay [5] was “yes” in each case.

Values taken from paper PMC3474971 (2012).
